# Patent publication US20070286822A1, “Compounds for the Treatment of Periodontal Disease” (ANACOR PHARMACEUTICALS INC., priority 2006, published 2007)
row,melting point [°C],SMILES
1,99 to 104,"OB1OCc2ccc(Sc3cccs3)cc21 [C43, 6-(thiophen-2-ylthio)benzo[c][1,2]oxaborol-1(3H)-ol]"
2,51 to 53,"Cc1cscc1B1OCc2cc(F)ccc21 [compound 14, 1,3-Dihydro-5-fluoro-1-(4-methylthiophen-3-yl)-2,1-benzoxaborole]"
3,210 to 212,"Fc1ccc2c(c1)COB2c1cccnc1 [compound 15, 3-(1,3-Dihydro-5-fluoro-2,1-benzoxaborol-1-yl)pyridine]"
4,149 to 154,"OB1OCc2ccc(-n3ccc4cc(Cl)ccc43)cc21 [C75, 6-(5-chloro-1H-indol-1-yl)benzo[c][1,2]oxaborol-1(3H)-ol]"
5,146 to 149,"N#Cc1cccc(Oc2ccc3c(c2)B(O)OC3)c1 [C19, 3-(1-hydroxy-1,3-dihydrobenzo[c][1,2]oxaborol-6-yloxy)benzonitrile]"
6,102 to 104,"COc1ccc2c(c1)COB2O [C7, 5-methoxybenzo[c][1,2]oxaborol-1(3H)-ol]"
7,95 to 100,"COc1ccc(Sc2ccc3c(c2)B(O)OC3)cc1 [C32, 6-(4-methoxyphenylthio)benzo[c][1,2]oxaborol-1(3H)-ol]"
8,135 to 138,"OB1OCc2ccc(N3CCN(c4ccccn4)CC3)cc21 [C48, 6-(4-(pyridin-2-yl)piperazin-1-yl)benzo[c][1,2]oxaborol-1(3H)-ol]"
9,139 to 143,"OB1OCc2ccc3ccccc3c21 [C11, naphtho[1,2-c][1,2]oxaborol-1(3H)-ol]"
10,157 to 163,"O=S(=O)(c1ccc(Cl)cc1)c1ccc2c(c1)B(O)OC2 [C90, 6-(4-chlorophenylsulfonyl)benzo[c][1,2]oxaborol-1(3H)-ol]"
11,186 to 193,"O=C(Nc1ccc2c(c1)B(O)OC2)c1ccccc1 [C52, N-(1-hydroxy-1,3-dihydrobenzo[c][1,2]oxaborol-6-yl)benzamide]"
12,120 to 124,"COc1ccc2c(ccn2-c2ccc3c(c2)B(O)OC3)c1 [C68, 6-(5-methoxy-1H-indol-1-yl)benzo[c][1,2]oxaborol-1(3H)-ol]"
13,126 to 129,"COc1ccc(Oc2ccc3c(c2)B(O)OC3)cc1 [C31, 6-(4-methoxyphenoxy)benzo[c][1,2]oxaborol-1(3H)-ol]"
14,158 to 163,"O=C(COc1ccc2c(c1)COB2O)N1CCCCC1 [C46, 2-(1-hydroxy-1,3-dihydrobenzo[c][1,2]oxaborol-5-yloxy)-1-(pieridin-1-yl)ethanone]"
15,154 to 161,"[O-][S+](c1ccc(Cl)cc1)c1ccc2c(c1)B(O)OC2 (stereo not shown) [C89, 6-(4-chlorophenylsulfinyl)benzo[c][1,2]oxaborol-1(3H)-ol]"
16,135 to 141,"COc1ccc2c(c1)c(Sc1ccccc1)cn2-c1ccc2c(c1)B(O)OC2 [C72, 6-(5-methoxy-3-(phenylthio)-1H-indol-1-yl)benzo[c][1,2]oxaborol-1(3H)-ol]"
17,139 to 144,"Cc1ccc(Sc2ccc3c(c2)B(O)OC3)cc1 [C95, 6-(p-tolylthio)benzo[c][1,2]oxaborol-1(3H)-ol]"
18,135 to 141,"N#CCCSc1cn(-c2ccc3c(c2)B(O)OC3)c2ccccc12 [C67, 3-(1-(1-hydroxy-1,3-dihydrobenzo[c][1,2]oxaborol-6-yl)-1H-indol-3-ylthio)propanenitrile]"
19,84 to 86,"Fc1ccc2c(c1)COB2C=Cc1ccccc1 [10b, 1,3-Dihydro-5-fluoro-1-styryl-2,1-benzoxaborole]"
20,185 to 189,"OB1OCc2cc3c(cc21)OCO3 [C69, 5,6-methylenedioxybenzo[c][1,2]oxaborol-1(3H)-ol]"

row,melting point [°C],SMILES
1,135 to 138,"OB1OCc2ccc(Sc3ccc(F)cc3)cc21 [C44, 6-(4-fluorophenylthio)benzo[c][1,2]oxaborol-1(3H)-ol]"
2,107 to 111,"Cc1cccc2c1B(O)OC2 [C65, 7-methylbenzo[c][1,2]oxaborol-1(3H)-ol]"
3,147 to 150,"N#Cc1cccc(COc2ccc3c(c2)COB3O)c1 [C96, 3-((1-hydroxy-1,3-dihydrobenzo[c][1,2]oxaborol-5-yloxy)methyl)benzonitrile]"
4,190 to 195,"O=C(COc1ccc2c(c1)COB2O)N1CCN(c2ncccn2)CC1 [C47, 2-(1-hydroxy-1,3-dihydrobenzo[c][1,2]oxaborol-5-yloxy)-1-(4-(pyrimidin-2-yl)piperazin-1-yl)ethanone]"
5,117 to 120,"CSc1ccc(Sc2ccc3c(c2)B(O)OC3)cc1 [C94, 6-(4-(methylthio)phenylthio)benzo[c][1,2]oxaborol-1(3H)-ol]"
6,134 to 137,"CCOC(=O)COc1ccc2c(c1)COB2O [C41, Ethyl 2-(1-hydroxy-1,3-dihydrobenzo[c][1,2]oxaborol-5-yloxy)acetate]"
7,124 to 128,"Cc1ccc2c(c1)COB2O [C8, 5-methylbenzo[c][1,2]oxaborol-1(3H)-ol]"
8,90 to 99,"Fc1ccc2c(c1)COB2c1ccccc1 [9b, 1,3-Dihydro-5-fluoro-1-phenyl-2,1-benzoxaborole]"
9,75 to 77,"Fc1ccc(B2OCc3cc(F)ccc32)cc1 [9h, 1,3-Dihydro-5-fluoro-1-(4-fluorophenyl)-2,1-benzoxaborole]"
10,159 to 163,"OB1OCc2ccc(-n3cc(Sc4ccccc4)c4ccccc43)cc21 [C66, 6-(3-(phenylthio)-1H-indol-1-yl)benzo[c][1,2]oxaborol-1(3H)-ol]"
11,159 to 161,"OB1OCc2ccc(N3CCN(c4ccccc4)CC3)cc21 [C53, 6-(4-phenylpiperazin-1-yl)benzo[c][1,2]oxaborol-1(3H)-ol]"
12,162 to 167,"O=[N+]([O-])c1cc2c(cc1F)COB2O [C58, 5-fluoro-6-nitrobenzo[c][1,2]oxaborol-1(3H)-ol]"
13,57 to 59,"C(=Cc1ccccc1)B1OCc2ccccc21 [10a, 1,3-Dihydro-1-styryl-2,1-benzoxaborole]"
14,80 to 82,"Fc1cccc(B2OCc3cc(F)ccc32)c1 [9g, 1,3-Dihydro-5-fluoro-1-(3-fluorophenyl)-2,1-benzoxaborole]"
15,48 to 49,"Cc1cccc(B2OCc3cc(F)ccc32)c1 [9i, 1,3-Dihydro-5-fluoro-1-(3-methylphenyl)-2,1-benzoxaborole]"
16,53 to 55,"Fc1ccc(B2OCc3ccccc32)cc1 [9e, 1,3-Dihydro-1-(4-fluorophenyl)-2,1-benzoxaborole]"
17,180 to 192,"COc1ccc(S(=O)(=O)c2ccc3c(c2)B(O)OC3)cc1 [C33, 6-(4-methoxyphenylsulfonyl)benzo[c][1,2]oxaborol-1(3H)-ol]"
18,149 to 154,"COc1ccc2c(c1)c(SCCC#N)cn2-c1ccc2c(c1)B(O)OC2 [C73, 3-(1-(1-hydroxy-1,3-dihydrobenzo[c][1,2]oxaborol-6-yl)-5-methoxy-1H-indol-3-ylthio)propanenitrile]"
19,85 to 95,"CN(c1ccc2c(c1)COB2O)S(=O)(=O)c1ccccc1 [C30, N-(1-hydroxy-1,3-dihydrobenzo[c][1,2]oxaborol-5-yl)-N-methylbenzenesulfonamide]"
20,128 to 132,"OB1OCc2ccc(N3CCOCC3)cc21 [C56, 6-morpholinobenzo[c][1,2]oxaborol-1(3H)-ol]"
